We go through 33 compounds from patent US10082496B2, “Targeting emopamil binding protein (EBP) with small molecules that induce an abnormal feedback response by lowering endogenous cholesterol biosynthesis” (Board of Regents of the University of Texas System, priority 2014, dated 2018).

In data set [1] the test system is HCT-116. Nature of the data set: In vitro APC inhibition assay (MTT), HCT-116. Format: cell-based. The settings on record: Homo sapiens, HCT-116, read-out: IC50 (nM) in HCT-116. The protocol:
(§1) The small molecule anti-cancer compounds were evaluated for the ability to inhibit the activity of APC in an in vitro assay.
Reagents required for the assay are: (3-[4,5-Dimethylthiazol-2-yl]-2,5-diphenyltetrazolium bromide; Thiazolyl blue; RPI corp., cat# M92050); RPMI-1640 or Medium of Choice (i.e. DMEM) without phenol red; 1M Hepes; 100 mM NaPyruvate; 1000× Gentamicin (50 mg/ml); 100× Penicillin/Streptomycin/Fungizone; 1×PBS; Triton X-100; 1N HCl and Isopropanol. To make the MTT solution (10×), MTT powder was dissolved into complete RPMI (or DMEM solution) to a final concentration of 5 mg/mL and was sterilized by filtration with a 0.2 μm filter. The MTT solubilization solution contained 10% Triton X-100, 0.1N and 80% isopropanol. MTT solution was diluted to 1× with complete medium at 12 mL per plate. The culture dishes (96 wells) were removed from the incubator and the media was discarded. The plates were washed three times with 1×PBS. 100 μl of 1×MTT solution was added to each well and the plates were incubated in a tissue culture incubator for 2-4 hours, depending on the cell line. The cells were removed from the incubator and the MTT solution was discarded. 200 μl of 1×MTT solubilization solution was added to each well using a multi-channel pipetor and the cells were placed on an orbital shaker for 10 minutes. The results were read on a microtiter plate reader (absorbance=570 nm, reference=700 nm) and data was exported.
(§2) Percent inhibition was determined relative to control reactions without inhibitor, and half maximal inhibitory concentration (IC50) values were determined using a standard four parameter fit to the inhibition data.

Data set [2] has as its system HT-29. Nature of the data set: In vitro APC inhibition assay (MTT), HT-29. Format: cell-based. As to conditions: Homo sapiens. Here is the method:
as §1
(§3) Reagents required for the assay are: (3-[4,5-Dimethylthiazol-2-yl]-2,5-diphenyltetrazolium bromide; Thiazolyl blue; RPI corp., cat# M92050); RPMI-1640 or Medium of Choice (i.e. DMEM) without phenol red; 1M Hepes; 100 mM NaPyruvate; 1000× Gentamicin (50 mg/ml); 100× Penicillin/Streptomycin/Fungizone; 1×PBS; Triton X-100; 1N HCl and Isopropanol. To make the MTT solution (10×), MTT powder was dissolved into complete RPMI (or DMEM solution) to a final concentration of 5 mg/mL and was sterilized by filtration with a 0.2 μm filter. The MTT solubilization solution contained 10% Triton X-100, 0.1N and 80% isopropanol. MTT solution was diluted to 1× with complete medium at 12 mL per plate. The culture dishes (96 wells) were removed from the incubator and the media was discarded. […] The cells were removed from the incubator and the MTT solution was discarded.
as §2

Data set [3] deals with DLD1 cells. Nature of the data set: Dose response studies in CRC line DLD1 (truncated APC). As to conditions: varying doses. Format: cell-based, human. Here is the method: These 14 compounds then were obtained commercially and their IC50 determined by performing dose response studies with half log dilution series at 12 concentration points in two authentic CRC lines: HCT116 (wt APC) and DLD1 (truncated APC).
DLD-1 cells normally are cultured in 10% serum medium, and they are rapidly shifted to 0.2% serum medium for dose response studies.

Data set [4] deals with DLD-1. Nature of the data set: In vitro APC inhibition assay (MTT), DLD-1. In kind it is cell-based. The settings on record: Homo sapiens. Here is the method:
as §1, §3, §2

Data set [5] in a line: S9 half-life. Format: in vitro ADME. As to conditions: S9 fraction; read-out: S9 T1/2.
The test system of data set [6] is HCT116 cells. Briefly: Dose response studies in CRC line HCT116 (wt APC). Format: cell-based. The settings on record: Homo sapiens, HCT-116; read-out: IC50 towards HCT116 cells. The source says: These 14 compounds then were obtained commercially and their IC50 determined by performing dose response studies with half log dilution series at 12 concentration points in two authentic CRC lines: HCT116 (wt APC) and DLD1 (truncated APC). […] These two compounds served as initial lead compounds for analog development and for additional studies.

Data set [7] concerns DLD1 tumors. Briefly: DLD1 xenograft mouse model. Format: in vivo. The settings on record: 40 mg/kg intraperitoneally twice daily for 18 days.
Data set [8] deals with colorectal tumors in CPC;Apc mice. Briefly: CPC;Apc genetically engineered mouse model of colorectal tumors. As to conditions: in vivo. Here is the method: These mice carry a CDX2P-NLS Cre recombinase transgene and a loxP-targeted Apc allele that deletes exon 14, leading to a frame shift at codon 580 and a truncated APC protein (Hinoi, T. et al. Mouse model of colonic adenoma-carcinoma progression based on somatic Apc inactivation. Cancer Res 67, 9721-9730 (2007)). […] Weights were measured every 15 days over the treatment period. These studies were performed according to the guidelines of the UT Southwestern Institutional Animal Care and Use Committee.

Some results are limits rather than exact numbers.

By IC50 is commonly meant the concentration that inhibits the measured activity by half.

As to `C#CCOCCC1CCN(C2CCN(S(=O)(=O)c3ccccc3)CC2)CC1`, the half-inhibitory concentration (IC50) in data set [1] was more than 10000 nM; in data set [2] (HT-29, HT-29 (truncated APC)) it was 35 nM.
The like results for `CC1CCN(C2CCN(S(=O)(=O)c3ccc(-c4ccccc4)cc3)CC2)CC1` were, in that order, more than 10000 nM and 234 nM.
As to `CC(C(O)c1ccc(O)cc1)N1CCC(Cc2ccccc2)CC1` (stereo not drawn) [Ifenprodil], the “sensitivity of DLD-1 vs HCT-116 cells to EBP inhibitors (FIG. 10)” value in data set [3] is given as “selectively sensitive”.
Consider `C#CCC1CCN(C2CCN(S(=O)(=O)c3ccc(C(=O)c4ccccc4)cc3)CC2)CC1`, for which the half-maximal inhibitory concentration (IC50) in data set [1] is more than 10000 nM; in data set [4] (DLD-1, DLD-1 (truncated APC)) it was 4.8 nM; in data set [2] (HT-29, HT-29 (truncated APC)), 5.2 nM.
For `C#CCC1CCCCN1C1CCN(S(=O)(=O)c2ccccc2)CC1` (stereo not drawn), the half-inhibitory concentration (IC50) is more than 10000 nM in data set [1] and 1100 nM in data set [2] (HT-29, HT-29 (truncated APC)).
In the case of `CC1CCN(C2CCN(S(=O)(=O)c3ccc(Br)cc3)CC2)CC1`, the concentration for half-maximal inhibition (IC50) in data set [1] is more than 10000 nM; in data set [2] (HT-29, HT-29 (truncated APC)), 1.2 nM.
As for `CC1CCN(C2CCN(S(=O)(=O)c3c(C(C)C)cc(C(C)C)cc3C(C)C)CC2)CC1`, the IC50 in data set [4] (DLD-1, DLD-1 (truncated APC)) stood at 0.7 nM. In addition, the half-life in data set [5] was determined as 59 min.
As to `CC1CCN(C2CCN(S(=O)(=O)c3ccc(-c4ccc(Cl)cc4)cc3)CC2)CC1`, the half-maximal inhibitory concentration (IC50) in data set [1] was more than 10000 nM; in data set [2] (HT-29, HT-29 (truncated APC)), 112 nM.
As to `C#CCOCCC1CCCCN1C1CCN(S(=O)(=O)c2ccccc2)CC1` (stereo not drawn), the IC50 was more than 10000 nM in data set [1] and 2300 nM in data set [2] (HT-29, HT-29 (truncated APC)).
In the same order, the values of `CC1CCN(C2CCN(S(=O)(=O)c3ccccc3-c3ccc(C(F)(F)F)cc3)CC2)CC1` are more than 10000 nM and 57 nM.
As for `COc1ccccc1-c1ccc(S(=O)(=O)N2CCC(N3CCC(C)CC3)CC2)cc1`, the IC50 was more than 10000 nM in data set [1] and 19 nM in data set [2] (HT-29, HT-29 (truncated APC)).
In the same order, the values of `Cc1cc(C)c(S(=O)(=O)N2CCC(N3CCC(C)OC3)CC2)c(C)c1` (stereo not drawn) are more than 10000 nM and 61 nM.
The like results for `Cc1cc(C)c(S(=O)(=O)N2CCC(N3CC(C)CC(C)C3)CC2)c(C)c1` (stereo not drawn) were, in that order, more than 10000 nM and 15 nM.
With `C#CCOc1ccc(C(=O)c2ccccc2)cc1S(=O)(=O)N1CCC(N2CCC(C)CC2)CC1`, the IC50 in data set [1] was more than 10000 nM; in data set [4] (DLD-1, DLD-1 (truncated APC)) it was 504 nM; in data set [2] (HT-29, HT-29 (truncated APC)), 185 nM.
On to `C[Si](C)(C)C#CCC1CCN(C2CCN(S(=O)(=O)c3ccc(Br)cc3)CC2)CC1`, for which the IC50 in data set [1] is more than 10000 nM; in data set [4] (DLD-1 (truncated APC)), 2.9 nM; in data set [2] (HT-29 (truncated APC)) it was 1.7 nM.
On to `COc1ccc2c(c1)CCC(c1ccccc1)=C2c1ccc(OCCN2CCCC2)cc1` [Nafoxidine], for which the “sensitivity of DLD-1 vs HCT-116 cells to EBP inhibitors (FIG. 10)” value in data set [3] is “selectively sensitive”.
As for `CC1CCN(C2CCN(S(=O)(=O)c3cccnc3)CC2)CC1`, the half-inhibitory concentration (IC50) was more than 10000 nM in data set [1] and 2200 nM in data set [2] (HT-29, HT-29 (truncated APC)).
In the case of `COc1ccc(S(=O)(=O)N2CCC(N3CCC(C)CC3)CC2)cc1` [TASIN-1], the IC50 in data set [6] is more than 10000 nM. Also, the overt toxicity result in data set [7] is recorded as “no overt toxicity”. Moreover, the “toxicity in xenograft and genetically engineered CRC mouse models” value in data set [8] is “without noticeable toxicity”.
For `CC1CCN(C2CCN(S(=O)(=O)c3ccc4ncsc4c3)CC2)CC1`, the 50% inhibitory concentration (IC50) in data set [1] was more than 10000 nM; in data set [4] (DLD-1, DLD-1 (truncated APC)), 38 nM; in data set [2] (HT-29, HT-29 (truncated APC)), 26 nM.
In the same order, the values of `C#CCOc1ccc(CN2CCC(N3CCC(C)CC3)CC2)cc1N=[N+]=[N-]` are more than 10000 nM, 921 nM and 437 nM.
As to `COc1ccc(-c2ccc(S(=O)(=O)N3CCC(N4CCC(C)CC4)CC3)cc2)cc1`, the IC50 in data set [1] is more than 10000 nM; in data set [2] (HT-29, HT-29 (truncated APC)) it was 288 nM.
The like results for `Cc1ccc(S(=O)(=O)N2CCC(N3CCC(C)CC3)CC2)cc1` were, in that order, more than 10000 nM and 14 nM.
On to `C#CCC1CCN(C2CCN(S(=O)(=O)c3ccccc3)CC2)CC1`, for which the half-inhibitory concentration (IC50) in data set [1] was more than 10000 nM; in data set [4] (DLD-1, DLD-1 (truncated APC)), 18 nM; in data set [2] (HT-29, HT-29 (truncated APC)), 4 nM. For the same compound, in data set [5], the half-life turned out to be 25.2 min.
Consider `CC1CCN(C2CCN(S(=O)(=O)c3ccc(Cl)cc3)CC2)CC1`, for which the half-maximal inhibitory concentration (IC50) in data set [1] was more than 10000 nM; in data set [2] (HT-29, HT-29 (truncated APC)), 5.6 nM.
In data set [4] (DLD-1, DLD-1 (truncated APC)), `CC1CCN(C2CCN(S(=O)(=O)c3cccc(OC(F)(F)F)c3)CC2)CC1` gave an IC50 of 56 nM.
Same read-out and setting: the figure for `CCCCC#Cc1cc(S(=O)(=O)N2CCC(N3CCC(C)CC3)CC2)ccc1OC(F)(F)F` is 147 nM; for `C[C@H]1CC[N@+](C)(C2CCN(S(=O)(=O)c3ccccc3)CC2)CC1` it is more than 10000 nM; for `Cc1cc(C)c(S(=O)(=O)N2CCC([N+]3(C)CCCC3)CC2)c(C)c1` it is 69 nM.
Still for that read-out and setting: the figure for `C[N+]1(C2CCN(S(=O)(=O)c3cccc4ccccc34)CC2)CCCC1` is 2300 nM; for `C[C@H]1CC[N@@+](C)(C2CCN(S(=O)(=O)c3ccccc3)CC2)CC1` it is approximately 7960 nM.
As to `C#CCOc1ccc(N=[N+]=[N-])cc1S(=O)(=O)N1CCC(N2CCC(C)CC2)CC1`, the half-maximal inhibitory concentration (IC50) in data set [1] is more than 10000 nM; in data set [4] (DLD-1, DLD-1 (truncated APC)), 15000 nM; in data set [2] (HT-29, HT-29 (truncated APC)) it was 4500 nM.
Consider `Cc1cc(C)c(S(=O)(=O)N2CCC(N3CCCC3)CC2)c(C)c1`, for which half-maximal inhibition in data set [4] (DLD-1, DLD-1 (truncated APC)) (IC50) was put at 172 nM.
With `CC1CCN(C2CCN(S(=O)(=O)c3cccc4c3OCCO4)CC2)CC1`, the concentration for half-maximal inhibition (IC50) in data set [4] (DLD-1, DLD-1 (truncated APC)) worked out at 10 nM. For the same compound, in data set [5], the half-life was found to be 22.6 min.
